The values below come from article PMC5065788 (Bioorganic & medicinal chemistry, 2016).

The target in test [1] is T1, recombinant human aromatase (CYP19) (Homo sapiens, UniProt P11511).
T1 sequence (P11511 1-503): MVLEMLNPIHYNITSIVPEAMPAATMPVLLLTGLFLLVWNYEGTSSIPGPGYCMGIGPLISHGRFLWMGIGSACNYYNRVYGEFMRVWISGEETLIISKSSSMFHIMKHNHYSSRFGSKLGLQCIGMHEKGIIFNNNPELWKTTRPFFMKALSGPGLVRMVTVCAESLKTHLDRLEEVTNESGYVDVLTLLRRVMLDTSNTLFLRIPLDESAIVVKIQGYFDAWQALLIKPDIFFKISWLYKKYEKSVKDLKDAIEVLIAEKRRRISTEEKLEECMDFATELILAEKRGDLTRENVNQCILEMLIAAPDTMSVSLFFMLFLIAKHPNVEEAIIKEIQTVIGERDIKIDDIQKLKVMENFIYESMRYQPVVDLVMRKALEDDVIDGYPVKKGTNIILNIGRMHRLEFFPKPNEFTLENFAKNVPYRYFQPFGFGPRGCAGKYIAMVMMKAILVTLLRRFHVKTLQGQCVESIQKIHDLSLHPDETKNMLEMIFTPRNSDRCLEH
The test can be described thus: Inhibition of recombinant human aromatase. It is filed as biochemical. Conditions: ratio of IC50 values vs 13 (24880 nM).

The target of test [2] is T2, recombinant human ER-α (Homo sapiens, UniProt P03372).
T2 sequence (P03372 1-595): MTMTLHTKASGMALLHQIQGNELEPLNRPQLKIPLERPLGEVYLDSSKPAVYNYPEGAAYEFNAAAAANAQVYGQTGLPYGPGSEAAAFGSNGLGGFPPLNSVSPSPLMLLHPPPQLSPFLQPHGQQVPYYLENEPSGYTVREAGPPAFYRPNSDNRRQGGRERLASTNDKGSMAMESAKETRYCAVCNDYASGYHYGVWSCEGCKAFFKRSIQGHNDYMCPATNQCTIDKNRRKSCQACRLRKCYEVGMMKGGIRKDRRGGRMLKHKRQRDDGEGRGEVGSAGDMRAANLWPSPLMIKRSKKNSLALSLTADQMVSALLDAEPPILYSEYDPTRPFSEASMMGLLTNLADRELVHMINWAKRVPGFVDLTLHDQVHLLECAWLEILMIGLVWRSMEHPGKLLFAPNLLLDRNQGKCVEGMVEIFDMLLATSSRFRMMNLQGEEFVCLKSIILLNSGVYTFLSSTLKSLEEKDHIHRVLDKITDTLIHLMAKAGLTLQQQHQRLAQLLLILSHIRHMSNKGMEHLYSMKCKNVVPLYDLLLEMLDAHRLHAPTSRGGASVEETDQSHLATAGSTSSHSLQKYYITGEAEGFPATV
The settings on record: at 100 μM; previously reported compounds included for comparison; cited from earlier work.

Test [3] has as its target T2, recombinant human ER-α. The test can be described thus: Binding affinity for recombinant human ER-α. The settings on record: at 100 μM (100000 nM).
The target in test [4] is T3, recombinant human ER-β (Homo sapiens, UniProt Q92731). The test can be described thus: Binding affinity for recombinant human ER-β. The settings on record: at 100 μM (100000 nM).
T3 sequence (Q92731 whole entry): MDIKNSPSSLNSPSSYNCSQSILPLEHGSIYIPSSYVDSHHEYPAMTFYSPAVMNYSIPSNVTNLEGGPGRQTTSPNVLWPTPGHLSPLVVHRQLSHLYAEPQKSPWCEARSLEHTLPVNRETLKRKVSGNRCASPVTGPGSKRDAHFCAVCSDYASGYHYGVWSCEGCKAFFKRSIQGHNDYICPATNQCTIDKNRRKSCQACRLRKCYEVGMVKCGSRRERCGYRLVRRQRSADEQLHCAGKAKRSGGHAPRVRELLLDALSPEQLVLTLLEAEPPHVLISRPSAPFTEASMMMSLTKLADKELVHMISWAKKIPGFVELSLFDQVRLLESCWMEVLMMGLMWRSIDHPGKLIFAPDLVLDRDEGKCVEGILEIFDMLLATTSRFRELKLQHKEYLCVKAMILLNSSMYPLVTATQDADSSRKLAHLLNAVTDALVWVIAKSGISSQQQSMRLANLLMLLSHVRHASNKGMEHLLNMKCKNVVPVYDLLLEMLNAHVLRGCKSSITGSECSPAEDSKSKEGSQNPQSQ
Test [5] deals with progesterone receptor (PGR) mRNA expression in MCF-7 cells. The test can be described thus: Antagonism of β-estradiol-stimulated progesterone receptor. It is filed as cell-based, human. The settings on record: 1 μM compound in the presence of 10 nM β-estradiol, 24 hours.
The target in test [6] is T3, recombinant human ER-β. The settings on record: at 100 μM; previously reported compounds included for comparison; cited from earlier work.

The structures appear in SMILES notation. Like-named read-outs stand apart in the source and are kept apart here.

Take `CC(=C(c1ccc(N)cc1)c1ccc(N)cc1)c1ccc([N+](=O)[O-])cc1` [Compound 12c, 4-(1-(4-Aminophenyl)-2-(4-nitrophenyl)prop-1-enyl)benzenamine]: in test [1], the “times more potent than 13 against aromatase” value turned out to be 113 times. Same read-out and setting: as for `CCC(=C(c1ccc(N)cc1)c1ccc(N)cc1)c1ccc([N+](=O)[O-])cc1` [Compound 12d, 4-(1-(4-Aminophenyl)-2-(4-nitrophenyl)but-1-enyl)benzenamine], the figure is 400 times. Consider `CCC(=C(c1ccc(O)cc1)c1ccc(O)cc1)c1ccccc1` [Compound 13, 4-(1-(4-Hydroxyphenyl)-2-phenylbut-1-enyl)phenol], for which, at recombinant human ER-α [2], the ER-α percent competition is 80% competition at 100 μM. On to `CC(=C(c1ccc(O)cc1)c1ccc(OCC(N)=O)cc1)c1ccc([N+](=O)[O-])cc1` [Compound 16a, (E,Z)-2-(4-(1-(4-Hydroxyphenyl)-2-(4-nitrophenyl)prop-1-enyl)phenoxy)-acetamide], for which the ER-α percent competition at recombinant human ER-α [3] was 0% competition at 100 μM. The ER-β percent competition on recombinant human ER-β [4] was found to be 0% competition at 100 μM. `CCC(=C(c1ccc(O)cc1)c1ccc(OCC(N)=O)cc1)c1ccc([N+](=O)[O-])cc1` [Compound 16b, (E,Z)-2-(4-(1-(4-Hydroxyphenyl)-2-(4-nitrophenyl)but-1-enyl)phenoxy)-acetamide]: the ER-α percent competition on recombinant human ER-α [3] is recorded as 0% competition at 100 μM. Also, the ER-β percent competition at recombinant human ER-β [4] is recorded as 0% competition at 100 μM. In the case of `CCC(=C(c1ccc(N)cc1)c1ccc(NCC(N)=O)cc1)c1ccc([N+](=O)[O-])cc1` [Compound 16d, (E,Z)-2-(4-(1-(4-Aminophenyl)-2-(4-nitrophenyl)but-1-enyl)phenylamino)acetamide], the “PGR mRNA expression level relative to estradiol (100%)” value in test [5] stood at 19.6%. With `CC/C(=C(/c1ccc(O)cc1)c1ccc(OCC(N)=O)cc1)c1ccccc1` [Compound 17, (E,Z)-2-(4-(1-(4-Hydroxyphenyl)-2-phenylbut-1-enyl)phenoxy)-acetamide], the ER-α percent competition on recombinant human ER-α [2] is on record as 57% competition at 100 μM. Besides, the ER-β percent competition at recombinant human ER-β [6] is 71% competition at 100 μM.
